#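 Exposure lasted 48 hours, with cells grown in 96-well plates and compounds tested at five concentrations. TGI denotes the concentration required for complete inhibition of growth.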
# Experiments:
# Assay in all cases: NCI-60 cell line screen, 48 h
# [1] = test system: IGROV1 ovarian
# [2] = test system: NCI-H23 lung
# [3] = test system: U251 CNS
# [4] = test system: HOP-62 NSCLC
# [5] = test system: UACC-62 melanoma
# [6] = test system: NCI/ADR-RES ovarian
# [7] = test system: T-47D breast
# [8] = test system: EKVX NSCLC
# [9] = test system: K-562 leukemia
# [10] = test system: A498 renal
# [11] = test system: OVCAR-4 ovarian
# [12] = test system: OVCAR-3 ovarian
# [13] = test system: SNB-19 CNS
# [14] = test system: PC-3 prostate
# [15] = test system: SK-MEL-5 melanoma
# [16] = test system: HCC-2998 colon
# [17] = test system: MDA-MB-435
# [18] = test system: HCT-15 colon
# [19] = test system: SK-MEL-28 melanoma
# [20] = test system: SNB-75 CNS
# [21] = test system: HT29 colon
# [22] = test system: HCT-116 colon
# [23] = test system: HL-60(TB) leukemia
# [24] = test system: CAKI-1 renal
# [25] = test system: RPMI-8226 leukemia
# [26] = test system: M14 melanoma
# [27] = test system: OVCAR-5 ovarian
# [28] = test system: SN12C renal
# [29] = test system: SK-MEL-2 melanoma
# [30] = test system: SW-620 colon
# [31] = test system: 786-0 renal
# [32] = test system: TK-10 renal
# [33] = test system: COLO 205 colon
# [34] = test system: UO-31 renal
# [35] = test system: UACC-257 melanoma
# [36] = test system: A549 NSCLC
# [37] = test system: SF-539 CNS
# [38] = test system: HOP-92 NSCLC
# [39] = test system: MOLT-4 leukemia
# [40] = test system: ACHN renal
# [41] = test system: MDA-N
# [42] = test system: MCF7 breast
# [43] = test system: SF-295 CNS
# [44] = test system: MDA-MB-231 breast
# [45] = test system: NCI-H522 lung
# [46] = test system: KM12 colon
# [47] = test system: BT-549 breast
# [48] = test system: SK-OV-3 ovarian
# [49] = test system: LOX IMVI melanoma
# [50] = test system: OVCAR-8 ovarian
# [51] = test system: NCI-H226 lung
# [52] = test system: CCRF-CEM leukemia
# [53] = test system: NCI-H460 lung
# [54] = test system: DU-145 prostate
# [55] = test system: SR leukemia
# [56] = test system: RXF 393 renal
# [57] = test system: HS 578T breast
# [58] = test system: MALME-3M melanoma
# [59] = test system: SF-268 CNS
smiles,measurement,setting,value
N=c1c2c(-c3ccccc3)c[nH]c2ncn1N,TGI,[1],> 100 µM
same,TGI,[2],> 100 µM
same,TGI,[3],> 100 µM
same,TGI,[4],> 100 µM
same,TGI,[5],> 100 µM
same,TGI,[6],> 100 µM
same,TGI,[7],> 100 µM
same,TGI,[8],> 100 µM
same,TGI,[9],> 100 µM
same,TGI,[10],> 100 µM
same,TGI,[11],> 100 µM
same,TGI,[12],> 100 µM
same,TGI,[13],> 100 µM
same,TGI,[14],> 100 µM
same,TGI,[15],> 100 µM
same,TGI,[16],> 100 µM
same,TGI,[17],> 100 µM
same,TGI,[18],> 100 µM
same,TGI,[19],> 100 µM
same,TGI,[20],> 100 µM
same,TGI,[21],> 100 µM
same,TGI,[22],> 100 µM
same,TGI,[23],> 100 µM
same,TGI,[24],> 100 µM
same,TGI,[25],> 100 µM
same,TGI,[26],> 100 µM
same,TGI,[27],> 100 µM
same,TGI,[28],> 100 µM
same,TGI,[29],> 100 µM
same,TGI,[30],> 100 µM
same,TGI,[31],> 100 µM
same,TGI,[32],> 100 µM
same,TGI,[33],> 100 µM
same,TGI,[34],> 100 µM
same,TGI,[35],> 100 µM
same,TGI,[36],> 100 µM
same,TGI,[37],> 100 µM
same,TGI,[38],> 100 µM
same,TGI,[39],> 100 µM
same,TGI,[40],> 100 µM
same,TGI,[41],> 100 µM
same,TGI,[42],> 100 µM
same,TGI,[43],> 100 µM
same,TGI,[44],> 100 µM
same,TGI,[45],> 100 µM
same,TGI,[46],> 100 µM
same,TGI,[47],> 100 µM
same,TGI,[48],> 100 µM
same,TGI,[49],> 100 µM
same,TGI,[50],> 100 µM
same,TGI,[51],> 100 µM
same,TGI,[52],> 100 µM
CC1OC2(CC(OCc3ccccc3)C1OCc1ccccc1)OCCO2 (stereo unspecified),TGI,[1],> 100 µM
same,TGI,[2],> 100 µM
same,TGI,[3],> 100 µM
same,TGI,[4],> 100 µM
same,TGI,[5],> 100 µM
same,TGI,[6],> 100 µM
same,TGI,[8],> 100 µM
same,TGI,[9],> 100 µM
same,TGI,[10],> 100 µM
same,TGI,[11],> 100 µM
same,TGI,[12],> 100 µM
same,TGI,[13],> 100 µM
same,TGI,[14],> 100 µM
same,TGI,[15],> 100 µM
same,TGI,[16],> 100 µM
same,TGI,[17],> 100 µM
same,TGI,[18],90.5 µM
same,TGI,[19],> 100 µM
same,TGI,[53],> 100 µM
same,TGI,[21],58.2 µM
same,TGI,[22],> 100 µM
same,TGI,[23],48.9 µM
same,TGI,[24],> 100 µM
same,TGI,[25],> 100 µM
same,TGI,[26],> 100 µM
same,TGI,[54],> 100 µM
same,TGI,[27],> 100 µM
same,TGI,[55],> 100 µM
same,TGI,[28],> 100 µM
same,TGI,[29],> 100 µM
same,TGI,[30],> 100 µM
same,TGI,[31],> 100 µM
same,TGI,[56],74.4 µM
same,TGI,[32],> 100 µM
same,TGI,[33],> 100 µM
same,TGI,[34],> 100 µM
same,TGI,[35],> 100 µM
same,TGI,[36],> 100 µM
same,TGI,[37],> 100 µM
same,TGI,[38],> 100 µM
same,TGI,[39],75.2 µM
same,TGI,[40],> 100 µM
same,TGI,[41],> 100 µM
same,TGI,[42],> 100 µM
same,TGI,[43],> 100 µM
same,TGI,[44],> 100 µM
same,TGI,[45],> 100 µM
same,TGI,[46],> 100 µM
same,TGI,[47],> 100 µM
same,TGI,[48],> 100 µM
same,TGI,[49],> 100 µM
same,TGI,[57],> 100 µM
same,TGI,[58],> 100 µM
same,TGI,[50],> 100 µM
same,TGI,[51],> 100 µM
same,TGI,[59],> 100 µM
same,TGI,[52],> 100 µM
O=C(O)c1cnc2[nH]ccn2c1=O,TGI,[1],> 100 µM
same,TGI,[2],> 100 µM
same,TGI,[3],> 100 µM
same,TGI,[4],> 100 µM
same,TGI,[5],> 100 µM
same,TGI,[6],> 100 µM
same,TGI,[7],> 100 µM
same,TGI,[8],> 100 µM
same,TGI,[9],> 100 µM
same,TGI,[10],> 100 µM
same,TGI,[11],> 100 µM
same,TGI,[12],> 100 µM
same,TGI,[13],> 100 µM
same,TGI,[14],> 100 µM
same,TGI,[15],> 100 µM
same,TGI,[16],> 100 µM
same,TGI,[17],> 100 µM
same,TGI,[18],> 100 µM
same,TGI,[19],> 100 µM
same,TGI,[53],> 100 µM
same,TGI,[20],> 100 µM
same,TGI,[21],> 100 µM
same,TGI,[22],> 100 µM
same,TGI,[23],> 100 µM
same,TGI,[25],> 100 µM
same,TGI,[26],> 100 µM
same,TGI,[54],> 100 µM
same,TGI,[27],> 100 µM
same,TGI,[55],> 100 µM
same,TGI,[28],> 100 µM
same,TGI,[30],> 100 µM
same,TGI,[31],> 100 µM
same,TGI,[32],> 100 µM
same,TGI,[33],> 100 µM
same,TGI,[34],> 100 µM
same,TGI,[35],> 100 µM
same,TGI,[36],> 100 µM
same,TGI,[38],> 100 µM
same,TGI,[39],> 100 µM
same,TGI,[40],> 100 µM
same,TGI,[41],> 100 µM
same,TGI,[42],> 100 µM
same,TGI,[43],> 100 µM
same,TGI,[44],> 100 µM
same,TGI,[47],> 100 µM
same,TGI,[48],> 100 µM
same,TGI,[58],> 100 µM
same,TGI,[50],> 100 µM
same,TGI,[51],> 100 µM
same,TGI,[59],> 100 µM
same,TGI,[52],> 100 µM
CCCCCCCCCCCCCC[S+](C)C,TGI,[1],2.33 µM
same,TGI,[2],4.09 µM
same,TGI,[3],2.28 µM
same,TGI,[4],3.87 µM
same,TGI,[5],6.78 µM
same,TGI,[6],> 10 µM
same,TGI,[7],> 10 µM
same,TGI,[8],9.87 µM
same,TGI,[9],4.68 µM
same,TGI,[11],7.31 µM
same,TGI,[12],4.03 µM
same,TGI,[13],2.84 µM
same,TGI,[14],2.98 µM
same,TGI,[15],2.97 µM
same,TGI,[16],3.49 µM
same,TGI,[17],4.35 µM
same,TGI,[18],> 10 µM
same,TGI,[19],8.5 µM
same,TGI,[53],6.78 µM
same,TGI,[20],3.51 µM
same,TGI,[21],4.93 µM
same,TGI,[22],> 10 µM
same,TGI,[23],2.47 µM
same,TGI,[24],> 10 µM
same,TGI,[25],2.65 µM
same,TGI,[26],3.57 µM
same,TGI,[54],> 10 µM
same,TGI,[27],> 10 µM
same,TGI,[55],2.35 µM
same,TGI,[28],3.24 µM
same,TGI,[29],5.13 µM
same,TGI,[30],> 10 µM
same,TGI,[31],2.61 µM
same,TGI,[56],2.72 µM
same,TGI,[32],3.75 µM
same,TGI,[33],2.97 µM
same,TGI,[34],> 10 µM
same,TGI,[35],6.99 µM
same,TGI,[36],4.14 µM
same,TGI,[37],2.79 µM
same,TGI,[38],3.67 µM
same,TGI,[39],2.85 µM
same,TGI,[40],> 10 µM
same,TGI,[41],4.15 µM
same,TGI,[42],4.67 µM
same,TGI,[43],> 10 µM
same,TGI,[44],4.64 µM
same,TGI,[45],4.33 µM
same,TGI,[46],2.95 µM
same,TGI,[48],> 10 µM
same,TGI,[49],4.34 µM
same,TGI,[57],3.78 µM
same,TGI,[50],3.58 µM
same,TGI,[51],5.13 µM
same,TGI,[59],3.99 µM
same,TGI,[52],3.25 µM
